From patent US7244557B2, “Method of screening modulators of Nod1 signaling” (Regents of the University of Michigan, priority 2003, dated 2007) come the findings set out here.

For this assay, the target named is T1, NOD1 (Homo sapiens, UniProt Q9Y239).
T1 construct: expressed in transfected cells; host or cells: HEK293T
T1 sequence (Q9Y239 1-953): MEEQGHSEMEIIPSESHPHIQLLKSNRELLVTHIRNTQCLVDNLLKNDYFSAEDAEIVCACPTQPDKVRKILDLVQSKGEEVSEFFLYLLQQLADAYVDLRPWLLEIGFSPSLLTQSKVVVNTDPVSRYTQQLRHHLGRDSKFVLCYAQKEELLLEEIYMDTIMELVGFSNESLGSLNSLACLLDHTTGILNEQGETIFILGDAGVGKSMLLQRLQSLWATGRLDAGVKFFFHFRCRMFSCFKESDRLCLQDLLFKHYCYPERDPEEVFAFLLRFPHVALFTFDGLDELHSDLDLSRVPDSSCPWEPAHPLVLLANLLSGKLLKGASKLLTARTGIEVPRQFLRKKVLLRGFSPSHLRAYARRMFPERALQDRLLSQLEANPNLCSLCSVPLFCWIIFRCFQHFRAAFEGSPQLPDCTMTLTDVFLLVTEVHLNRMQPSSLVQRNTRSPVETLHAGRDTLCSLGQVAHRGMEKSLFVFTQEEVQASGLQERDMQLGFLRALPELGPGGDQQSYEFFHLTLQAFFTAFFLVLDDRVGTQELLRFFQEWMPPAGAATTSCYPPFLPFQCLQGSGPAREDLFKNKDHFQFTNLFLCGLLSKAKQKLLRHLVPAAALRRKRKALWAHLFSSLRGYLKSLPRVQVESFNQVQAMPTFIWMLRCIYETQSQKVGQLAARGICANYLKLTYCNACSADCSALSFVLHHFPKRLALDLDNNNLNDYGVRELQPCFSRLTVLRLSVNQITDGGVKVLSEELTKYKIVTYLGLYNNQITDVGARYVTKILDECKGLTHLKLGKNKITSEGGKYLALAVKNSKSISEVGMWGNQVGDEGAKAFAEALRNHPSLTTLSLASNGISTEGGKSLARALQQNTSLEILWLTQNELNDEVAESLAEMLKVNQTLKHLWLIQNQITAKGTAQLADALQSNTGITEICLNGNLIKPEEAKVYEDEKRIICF
Put plainly: NF-κB-dependent luciferase reporter assay, HEK293T cells expressing NOD1. It is filed as cell-based. The text has this:
Reagents. LPS from S. typhimurium, intact and alkaline-detoxified LPS from E. coli O55:B5 as well as purified lipid A preparations of E. coli F583, MDP, DAP and dsRNA were obtained from Sigma-Aldrich (St. Louis, Mo.). PGN from S. aureus was from Fluka-Chemie (Buchs, Germany). Palmitoyl-Cys ((RS)-2,3-di(palmitoyloxy)-propyl)-Ala-Gly) (sBLP), was obtained from Bachem (Torrance, Calif.). The tetrameric form of the disaccharide dipeptide was described previously (Inohara et al., J. Biol. Chem. 278:5509 [2003]). iE-DAP and iQ-DAP, M3P and M4P were synthesized as described (Kitaura et al., J. Med. Chem. 25:335 [1982]) with small modification. Purification of PGN from B. subtilis 168 and C. flaccumfaciens with hydrolases, Cellosyl or recombinant AtlE (amidase domain) and the fractionation and purification of reduced B. subtilis PGN digested with Cellosyl were performed as previously described (Heilman et al., Mol. Microbiol. 24:1013 [1997]; Atrih et al., J. Bact. 181:3956 [1999]). Removal of proteins and reduction of LPS fraction. E. coli O55:B5 LPS (Sigma) was treated with proteinase K at 37° C. for 12 hr to digest contaminating proteins. To eliminate lipoproteins, LPS was subjected to modified phenol extraction with deoxycholate-containing phenol as described (Hirschfeld et al., J. Immunol. 165:618 [2000]). For reduction of carboxyl group in the LPS, the LPS was treated with 1-ethyl-3-(3-dimethylaminopropyl) carbodiimide and then reduced with NaBH4 as described (Taylor et al., Biochemistry 11:1383 [1972]). Preparation of E. coli extract. E. coli K-12 mutants were all based on the SØ864 genetic background (lacZ trp upp relA rpsL) (Neuhard and Thomassen, J. Bacteriol. 126:999). SØ874 carries a large chromosomal deletion removing the gene clusters for the biosynthesis of CA capsule and O-antigen. CLM5 is a derivative of SØ874 with a transposon insertion in the wecC gene that blocks the synthesis of ECA (Marolda et al., J. Bacteriol. 177:5539[1995]). FAM5 is a derivative of SØ874 carrying a deletion that eliminates the incorporation of heptose in the LPS core. Extracts were prepared from all of these E. coli K-12 strains and also from another E. coli K-12 strain, LCD27 YA21-6 (Obtained from Dr. Arisaka, Tokyo Institute of Technology). Bacteria were cultured overnight at 37° C. in Luria broth, killed by treatment with acetone followed by vacuum drying and finally resuspended in 10 mM HEPES. The extract was treated with 1M NaOH at 55° C. for 12 hr and neutralized with 1M HEPES (pH 7.4). The soluble fraction after centrifugation and filtration with 0.22 μm filter was applied to SUPEROSE 12 gel filtration column chromatography. Partial purification of NOD1-stimulatory molecules from E. coli and composition analyses. The amino acid composition of E. coli O55:B5 LPS was determined using AccQ·Tag amino acid analysis system (Waters, Milford, Mass.) after hydrolysis at 110° C. for 24 hr. For carbohydrate analysis, E coli K-12 YA21-6 (Ref 26) cultured overnight at 37° C. in L-broth were washed with TBS twice and incubated with TBS containing 1 mglml DNase I, RNase I and lysozyme for 37° C. for 2 hr. Acetone was added to the extracts at 50% final concentration and the insoluble fractions were washed with an excess of 75% and 100% acetone. After vacuum drying, the acetone extract was solublized with 1 M NaOH and incubated at 60° C. for 24 hr. The pH was adjusted to pH 5.0 with acetic acid and the soluble fraction was passed through SUPEROSE gel filtration column. SUPEROSE fractions with NOD1-stimulatory activity were diluted with 10 mM Tris-HCl (pH 8.8) and subjected to UnoQ column chromatography. The fractions were eluted with a linear gradient of 0–300 mM NaCl. The positive fractions were dialyzed against water and dried under vacuum. The monosaccharide composition of the fractions after TFA/methanol degradation was determined as previously described (Forsberg et al., J. Biol. Chem. 273:2747[1998]). Transfection and NF-κB Activation Assay. […]
A general note: In a reporter assay the amount or activity of a reporter protein is the signal.
As to MurNAc-L-Ala-γ-D-Gln [MDP], the “NOD1-dependent NF-κB activation (NOD1 stimulation)” value (“NOD1-dependent NF-κB activation” for short) is on record as “Neither MDP nor tetrameric forms of disaccharide dipeptide (4 mer) stimulated NOD1”.

“Palmitoyl-Cys ((RS)-2,3-di(palmitoyloxy)-propyl)-Ala-Gly) [synthetic lipoprotein]”: the “NOD1-dependent NF-κB activation” value is “not NOD1”.

γ-D-Gln-DAP [iQ-DAP]: the “NOD1-dependent NF-κB activation” value was “stimulated NOD1”.

As to “γ-D-glutamy-meso-diaminopimelic acid [iE-DAP]”, the “NOD1-dependent NF-κB activation” value was “stimulated NOD1”.
